Data from ChEMBL document CHEMBL4831503, “Design, synthesis, in vitro and in vivo anti-respiratory syncytial virus (RSV) activity of novel oxizine fused benzimidazole derivatives” (Eur J Med Chem, 2021).
pEC50: −log10 of the molar value. The source made the active and inactive calls. The rule behind the calls is not given here.

Experiments:
[1] = test system: Respiratory syncytial virus; experiment: Antiviral activity against RSV infected in human HEp-2 cells assessed as downregulation of RIG-1 expression at 25 to 50 uM treated 48 hpi and measured after 48 hrs by Western blot analysis; format: functional, organism-based; conditions: dose 25-50 µM
Human orthopneumovirus [2] = experiment: Antiviral activity against Respiratory syncytial virus A2 infected in human A549 cells assessed as reduction in viral infection incubated for 60 hrs by MTT assay; format: functional, organism-based; conditions: A2, A549, 60 h
[3] = test system: Respiratory syncytial virus; experiment: Inhibition of RSV induced apoptosis in human HEp-2 cells assessed as reduction in cleaved caspase-3 expression measured after 60 hrs by Western blot analysis; format: functional, organism-based
[4] = test system: Respiratory syncytial virus; experiment: Antiviral activity against Respiratory syncytial virus infected in human HEp-2 cells assessed as reduction in RSV-F gene expression at 25 uM measured after 24 to 60 hpi by RT-PCR analysis; format: functional, organism-based; conditions: time 24-60 hrs
[5] = test system: Respiratory syncytial virus; experiment: Antiviral activity against Respiratory syncytial virus Long infected in African green monkey Vero cells assessed as reduction in viral infection incubated for 60 hrs by MTT assay; format: functional, organism-based; conditions: human respiratory syncytial virus
Human orthopneumovirus [6] = experiment: Antiviral activity against Respiratory syncytial virus A2 infected in human HEp-2 cells assessed as reduction in viral infection up to 50 uM treated 2 hpi measured after 60 hrs by MTT assay; format: functional, organism-based; conditions: dose microM <=50, time 60.0 hrs
[7] = test system: Respiratory syncytial virus; experiment: Antiviral activity against RSV Long infected in BALB/c mouse assessed as inhibition of alveolar infiltrates accumulation at 25 to 100 mg/kg/day observed on day 6 after infection by H and E staining based microscopic analysis; format: functional, organism-based; conditions: dose 25-100 mg/kg/day, time 6.0 day
[8] = Selectivity index, ratio of CC50 for human HEp-2 cells to EC50 for Respiratory syncytial virus A2 infected in human HEp-2 cells; format: toxicity, cell-based; conditions: read-out: Selectivity Index
HEp-2 [9] = experiment: Induction of ROS production in human HEp-2 cells assessed as accumulation of ROS-positive cells at 25 uM measured after 36 hrs by DCHF-DA staining based flow cytometry analysis (reference value: 48.2%); format: functional
Human orthopneumovirus [10] = experiment: Antiviral activity against Respiratory syncytial virus A2 infected in African green monkey Vero cells assessed as reduction in viral infection incubated for 60 hrs by MTT assay; format: functional, organism-based
[11] = test system: Respiratory syncytial virus; experiment: Antiviral activity against RSV infected in human HEp-2 cells assessed as decrease in virus induced TRAF3 gene expression measured after 48 hrs by RT-PCR analysis; format: functional, organism-based
[12] = test system: Respiratory syncytial virus; experiment: Antiviral activity against Respiratory syncytial virus infected in human HEp-2 cells incubated for 60 hrs by MTT assay; format: functional, organism-based; conditions: HEp-2, 60 h
[13] = test system: Respiratory syncytial virus; experiment: Inhibition of RSV induced apoptosis in human HEp-2 cells assessed as early apoptotic cells at 50 uM measured after 60 hrs by Annexin V-FITC/PI staining based flow cytometry analysis (reference value: 10.3%); format: functional; design: scale not given: the % may be the effect or the level left
[14] = test system: Respiratory syncytial virus; experiment: Antiviral activity against RSV infected in human HEp-2 cells assessed as decrease in virus induced TLR-3 gene expression measured after 48 hrs by RT-PCR analysis; format: functional, organism-based
[15] = test system: Respiratory syncytial virus; experiment: Antiviral activity against RSV Long infected in BALB/c mouse assessed as improvement in inflammatory infiltration of lung tissue at 25 mg/kg/day observed on day 6 after infection by H and E staining based microscopic analysis; format: functional, organism-based; conditions: time 6.0 day
[16] = test system: Respiratory syncytial virus; experiment: Antiviral activity against RSV infected in human HEp-2 cells assessed as decrease in virus induced TBK1 gene expression measured after 48 hrs by RT-PCR analysis; format: functional, organism-based
[17] = test system: Respiratory syncytial virus; experiment: Inhibition of RSV induced apoptosis in human HEp-2 cells assessed as late apoptotic cells at 50 uM measured after 60 hrs by Annexin V-FITC/PI staining based flow cytometry analysis (reference value: 20.2%); format: functional; design: scale not given: the % may be the effect or the level left
[18] = test system: Respiratory syncytial virus; experiment: Antiviral activity against RSV infected in BALB/c mouse assessed as downregulation of TLR3 expression in lung tissue infected with RSV at 25 to 100 mg/kg/day measured after 2 to 6 days post infection by RT-PCR analysis; format: functional, organism-based; conditions: dose 25-100 mg/kg/day, time 2-6 day
[19] = test system: Respiratory syncytial virus; experiment: Inhibition of RSV induced apoptosis in human HEp-2 cells assessed as reduction in cleaved caspase-9 expression measured after 48 hrs by Western blot analysis; format: functional, organism-based
[20] = test system: Respiratory syncytial virus; experiment: Antiviral activity against RSV infected in human HEp-2 cells assessed as downregulation of NF-kappaB expression at 25 to 50 uM treated 48 hpi and measured after 48 hrs by Western blot analysis; format: functional, organism-based; conditions: dose 25-50 µM
[21] = test system: Respiratory syncytial virus; experiment: Inhibition of RSV induced apoptosis in human HEp-2 cells assessed as reversal of virus induced increase in Bax/Bcl-2 ratio at 25 to 50 uM measured after 36 hrs by Western blot analysis; format: functional, organism-based; conditions: dose 25-50 µM
[22] = test system: Respiratory syncytial virus; experiment: Antiviral activity against RSV infected in BALB/c mouse assessed as downregulation of IRF3 expression in lung tissue infected with RSV at 25 to 100 mg/kg/day measured after 2 to 4 days post infection by RT-PCR analysis; format: functional, organism-based; conditions: dose 25-100 mg/kg/day, time 2-4 day
[23] = test system: Respiratory syncytial virus; experiment: Antiviral activity against RSV Long infected in BALB/c mouse assessed as lung edema at 25 mg/kg/day observed on day 6 after infection by H and E staining based microscopic analysis; format: functional, organism-based; conditions: time 6.0 day
[24] = test system: Respiratory syncytial virus; experiment: Antiviral activity against RSV Long infected in BALB/c mouse assessed as improvement in lung congestion at 25 to 100 mg/kg/day observed on day 6 after infection by H and E staining based microscopic analysis; format: functional, organism-based; conditions: dose 25-100 mg/kg/day, time 6.0 day
[25] = test system: Respiratory syncytial virus; experiment: Antiviral activity against RSV infected in human HEp-2 cells assessed as decrease in virus induced NF-kappaB gene expression measured after 48 hrs by RT-PCR analysis; format: functional, organism-based
[26] = test system: Respiratory syncytial virus; experiment: Antiviral activity against RSV infected in human HEp-2 cells assessed as decrease in virus induced IL-6 gene expression measured after 48 hrs by RT-PCR analysis; format: functional, organism-based
[27] = test system: Respiratory syncytial virus; experiment: Antiviral activity against RSV infected in BALB/c mouse assessed as downregulation of IL-10 expression in lung tissue infected with RSV at 25 to 100 mg/kg/day measured after 2 to 6 days post infection by RT-PCR analysis; format: functional, organism-based; conditions: dose 25-100 mg/kg/day, time 2-6 day
HEp-2 [28] = experiment: Induction of apoptosis in human HEp-2 cells assessed as early apoptotic cells at 25 uM measured after 60 hrs by Annexin V-FITC/PI staining based flow cytometry analysis (reference value: 0.1%); format: functional
[29] = test system: Respiratory syncytial virus; experiment: Inhibition of RSV induced apoptosis in human HEp-2 cells assessed as early apoptotic cells at 25 uM measured after 60 hrs by Annexin V-FITC/PI staining based flow cytometry analysis (reference value: 10.3%); format: functional; design: scale not given: the % may be the effect or the level left
[30] = test system: Respiratory syncytial virus; experiment: Antiviral activity against RSV infected in BALB/c mouse assessed as downregulation of RIG-1 expression in lung tissue infected with RSV at 25 to 100 mg/kg/day measured after 2 to 4 days post infection by RT-PCR analysis; format: functional, organism-based; conditions: dose 25-100 mg/kg/day, time 2-4 day
[31] = test system: Respiratory syncytial virus; experiment: Antiviral activity against RSV infected in human HEp-2 cells assessed as decrease in virus induced IFN-beta gene expression measured after 48 hrs by RT-PCR analysis; format: functional, organism-based
[32] = test system: Respiratory syncytial virus; experiment: Antiviral activity against RSV infected in BALB/c mouse assessed as inhibition of viral replication by measuring RSV-M gene expression in lung after 2 to 6 days post infection by RT-PCR analysis; format: functional, organism-based; conditions: time 2-6 day
[33] = test system: Respiratory syncytial virus; experiment: Inhibition of RSV induced apoptosis in human HEp-2 cells assessed as reduction in cleaved caspase-7 expression measured after 48 hrs by Western blot analysis; format: functional, organism-based

For `Cc1c(Br)cc2nc3n(c2c1Br)[C@H]1OC[C@@H](O)[C@H]1OC3`, the Activity [1] was “Active”, the pEC50 (Human orthopneumovirus [2]) was 4.88 and the inhibition [3] was “Active”. The Activity [4] was “Active”, the pEC50 [5] was 4.72 and the Activity (Human orthopneumovirus [6]) was “Active”. The Activity [7] was “Active”, the selectivity ratio [8] was 19.6 and the Activity (HEp-2 [9]) was 53.1%. For the same compound, the pEC50 (Human orthopneumovirus [10]) was 4.81, the Activity [11] was “Dose-Dependent Effect” and the pEC50 [12] was 5.02. For the same compound, the Activity [13] was 3.9%, the Activity [14] was “Dose-Dependent Effect” and the Activity [15] was “Active”. For the same compound, the Activity [16] was “Dose-Dependent Effect”, the Activity [17] was 2.2% and the Activity [18] was “Active”. For the same compound, the inhibition [19] was “Active”, the Activity [20] was “Active” and the inhibition [21] was “Active”. The Activity [22] was “Active”, the Activity [23] was “Active” and the Activity [24] was “Active”. The Activity [25] was “Dose-Dependent Effect”, the Activity [26] was “Dose-Dependent Effect” and the Activity [27] was “Active”. For the same compound, the Activity (HEp-2 [28]) was 0.4%, the Activity [29] was 12% and the Activity [30] was “Active”. For the same compound, the Activity [31] was “Dose-Dependent Effect”, the Activity [32] was “Dose-Dependent Effect” and the inhibition [33] was “Active”.
